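Cells were grown in 96-well plates and exposed to each compound for 48 hours at five concentrations; endpoints were interpolated linearly between bracketing concentrations, or set to the highest concentration if not reached. GI50 = concentration required for 50% inhibition of growth.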 Calls of active or inactive are those of the source. Rule as the data show it: active = GI50 up to about 1.1 µM and inactive = higher.
Columns and labels:
Test in all cases: inhibition of tumour cell growth, NCI panel, 48 h
[1] = system: HCT-116
[2] = system: MDA-MB-435
[3] = system: SF-295
[4] = system: HT-29
[5] = system: DU-145
[6] = system: Hs-578T
[7] = system: OVCAR-4
[8] = system: KM12
[9] = system: RPMI-8226
[10] = system: SN12C
[11] = system: K562
[12] = system: MDA-N
[13] = system: U-251
[14] = system: CCRF-CEM
[15] = system: OVCAR-3
[16] = system: COLO 205
[17] = system: MDA-MB-231
[18] = system: NCI-H460
[19] = system: CAKI-1
[20] = system: HCC 2998

Measured: GI50

COc1ccc(/C=C2\N=C(SC)N(CN3CCOCC3)C2=O)cc1
inactive: [1] 33.1 µM | [2] 74.8 µM | [3] 98.9 µM | [4] 27.5 µM | [5] 65.9 µM | [6] 59.2 µM | [7] 18.6 µM | [8] 78.3 µM | [9] 24.8 µM | [10] > 100 µM | [11] 39 µM | [12] 71.1 µM | [13] 51.6 µM | [14] 21.2 µM | [15] 90.6 µM | [16] 36.3 µM | [17] > 100 µM

Cc1cc(OP2(=O)NCc3ncccc3O2)ccc1Cl (centres undefined)
inactive: [1] > 100 µM | [2] > 100 µM | [3] > 100 µM | [18] > 100 µM | [5] > 100 µM | [7] > 100 µM | [8] 58.5 µM | [9] > 100 µM | [10] > 100 µM | [11] 84.5 µM | [12] > 100 µM | [13] > 100 µM | [14] > 100 µM | [19] > 100 µM | [20] 40.6 µM | [15] > 100 µM | [16] > 100 µM | [17] > 100 µM

CC[C@@]1(C[C@H]2C[C@@]3(C(=O)OC)c4[nH]c5ccccc5c4CCN3C2=S)COC2(CCCCC2)O1
inactive: [1] 6.92 µM | [2] 5.09 µM | [3] 22 µM | [18] 5.78 µM | [4] 16.7 µM | [5] > 100 µM | [6] 10.6 µM | [7] > 100 µM | [8] 4.47 µM | [10] > 100 µM | [11] 5.48 µM | [12] 66.8 µM | [13] 3.75 µM | [14] 7.23 µM | [19] > 100 µM | [20] 15.2 µM | [15] 55.7 µM | [16] 7.41 µM

O=c1[nH][nH]c(=O)n1/N=C/c1ccccc1
inactive: [1] > 100 µM | [2] > 100 µM | [3] > 100 µM | [18] > 100 µM | [4] > 100 µM | [5] > 100 µM | [6] > 100 µM | [8] > 100 µM | [9] > 100 µM | [10] > 100 µM | [11] > 100 µM | [12] > 100 µM | [13] > 100 µM | [14] > 100 µM | [19] > 100 µM | [15] > 100 µM | [16] > 100 µM | [17] > 100 µM

CCOC(=O)Cc1csc(N/C=C2/C(=O)Oc3ccccc3C2=O)n1
inactive: [1] 27.6 µM | [2] 23.9 µM | [3] 20.9 µM | [18] 45.4 µM | [4] 39.1 µM | [6] 22 µM | [7] 31.7 µM | [8] 27.8 µM | [9] 18.6 µM | [13] 20 µM | [14] 26.6 µM | [19] 26.2 µM | [15] 25.9 µM | [16] 44.7 µM

C[N+](C)(C)/C=N\c1cccc2nsnc12
inactive: [1] > 100 µM | [2] > 100 µM | [3] > 100 µM | [4] > 100 µM | [5] > 100 µM | [6] > 100 µM | [7] > 100 µM | [9] > 100 µM | [10] > 100 µM | [11] > 100 µM | [12] > 100 µM | [13] > 100 µM | [14] > 100 µM | [19] > 100 µM | [15] > 100 µM | [16] > 100 µM | [17] > 100 µM

CN(C)c1ccc(/C=N/NC(=S)Nc2ccccc2)cc1
inactive: [1] > 100 µM | [2] > 100 µM | [3] > 100 µM | [18] > 100 µM | [4] > 100 µM | [5] > 100 µM | [6] > 100 µM | [7] > 100 µM | [8] > 100 µM | [9] > 100 µM | [10] > 100 µM | [11] > 100 µM | [13] > 100 µM | [14] > 100 µM | [19] > 100 µM | [15] > 100 µM | [16] > 100 µM | [17] > 100 µM

CCN(CC)CCNc1ccc(/N=N/c2ccc(S(N)(=O)=O)cc2)c2ccccc12
inactive: [1] 3.72 µM | [2] 7.35 µM | [3] 4.3 µM | [18] 7.4 µM | [4] 5.96 µM | [5] 12 µM | [6] 15.5 µM | [7] 12.9 µM | [8] 6.01 µM | [9] 3.37 µM | [10] 8.89 µM | [11] 3.13 µM | [13] 4.61 µM | [14] 4.51 µM | [19] 13.7 µM | [20] 8.75 µM | [15] 2.43 µM | [16] 4.24 µM | [17] 4.33 µM
